Values after ≈ are worked out from the molar mass of the structure shown. Ends that are not written are not given here.
Tests used:
[1] = test system: H5N1 pseudovirus (HA and NA of A/Thailand/Kan353/2004)
MDCK cells [2] = settings: 4 h
[3] = test system: influenza A/Aichi/2/68 (H3N2); settings: /Aichi/2/68, 48 h
[4] = test system: influenza A/Aichi/2/68 (H3N2); assay: microbe, parasite or virus in culture; settings: H3N2, MDCK, read-out: H3N2 IC50
MDCK cells [5] = settings: previous work; cited from earlier work
H5 antigen = assay: Hemagglutination inhibition (HI) assay; settings: HA-FP-1 at 50 μg/mL, chicken erythrocytes 0.5% v/v, 1 h at room temperature
H5N1 pseudovirus = type: cell-based, influenza A virus

Compound | CC50 with serum (MDCK cells [2]) | CC50 without serum (MDCK cells [2]) | H3N2 IC50 [3] | other results
HA-FP-O: indigenous negatively charged fusion peptide of H3 hemagglutinin HA2, 20 residues (GLFGAIAGFIENGWEGMIDG) | – | – | – | inhibition of H5N1 pseudovirus infection (in words) [1]: a lower or no inhibition
GLFGAIAGFIKKGWPGLVKG-NH2 [HA-FP-3-1] | 209.35 ± 0.21 µg/mL | 174.53 ± 1.90 µg/mL | 27.57 ± 0.43 µg/mL | –
GLFGAIAGFIKGGWPGLVKG-NH2 [HA-FP-3] | – | – | 34.91 ± 4.21 µg/mL | –
NC(=O)c1ncn([C@@H]2O[C@H](CO)[C@@H](O)[C@H]2O)n1 [Ribavirin] | – | – | – | IC50 [4]: 0.63 µg/mL (≈ 2.58 µM)
GLFGAIAGFIKNGWKGMIKG-NH2 [HA-FP-1] | 143.65 ± 0.63 µg/mL | 111.70 ± 0.40 µg/mL | 5.90 ± 0.62 µg/mL | CC50 against MDCK (MDCK cells [5]): 144.4 µg/mL; inhibition of agglutination of red blood cells (H5 antigen): unable to inhibit; antiviral activity of HA-FP-1 in presence of HA-FP-O (H5N1 pseudovirus): completely abolished; IC50, infection of H5N1 influenza A pseudovirus on MDCK cells ([1]; pseudovirus (HA and NA of A/Thailand/Kan353/2004, 48 h)): 7.05 µg/mL
